How the values were obtained:
[1] = target: Trypsin (Homo sapiens, UniProt P07477+P07478+P35030); assay: Binding affinity to trypsin; type: protein assay
[2] = target: T1, Prothrombin (Homo sapiens, UniProt P00734); assay: Binding affinity to thrombin
[3] = Half life in dog administered with 4 mg/kg, po; type: ADME, organism-based, Canis lupus familiaris; parameters: dose 4 mg/kg, route oral; settings: in vivo
[4] = Cmax in dog administered with 4 mg/kg, po; type: ADME, organism-based, Canis lupus familiaris; parameters: dose 4 mg/kg, route oral; settings: in vivo
[5] = target: T1, Prothrombin; settings: Plasma
Description: Anticoagulant potency in human plasma

[6] = Cmax in dog administered with 5 mg/kg, po; type: ADME, organism-based, Canis lupus familiaris; parameters: dose 5 mg/kg, route oral; settings: in vivo

Compound	Ki [1]	Ki [2]	other results
Cc1ccc(NS(=O)(=O)Cc2ccccc2)c(=O)n1CC(=O)NCc1c[nH]cn1	314 µM	0.17 µM	–
Cc1ccc(NS(=O)(=O)Cc2ccccc2)c(=O)n1CC(=O)NCc1cnc(N)s1	> 1000 µM	–	–
Cc1ccc(NS(=O)(=O)Cc2ccccc2)c(=O)n1CC(=O)NCCCc1cnc(N)s1	124 µM	0.45 µM	–
Cc1cnc(NCCc2ccccc2)c(=O)n1CC(=O)NC[C@H]1CC[C@H](N)CC1	–	0.0064 µM	–
Cc1nc[nH]c1CNC(=O)Cn1c(C)cnc(NCCc2ccccc2)c1=O	–	0.053 µM	half-life [3]: 2 h; Cmax [4]: 1400 nM
Cc1ccc(NS(=O)(=O)Cc2ccccc2)c(=O)n1CC(=O)NC/C=C/c1c[nH]cn1	21 µM	0.143 µM	–
Cc1nc(N)sc1CNC(=O)Cn1c(C)ccc(NS(=O)(=O)Cc2ccccc2)c1=O	6.5 µM	0.01 µM	–
Cc1ccc(NS(=O)(=O)Cc2ccccc2)c(=O)n1CC(=O)NC/C=C/c1cnc(N)s1	> 1000 µM	1.8 µM	–
Cc1nc[nH]c1CNC(=O)Cn1c(C)ccc(NS(=O)(=O)Cc2ccccc2)c1=O	43 µM	0.008 µM	–
Nc1ncc(/C=C/CNC(=O)[C@@H]2CCCN2C(=O)[C@H](N)C(c2ccccc2)c2ccccc2)s1	178 µM	0.03 µM	–
Cc1ccc(NS(=O)(=O)Cc2ccccc2)c(=O)n1CC(=O)NCCCc1c[nH]cn1	17 µM	0.034 µM	–
N[C@@H](C(=O)N1CCC[C@H]1C(=O)NCCCc1c[nH]cn1)C(c1ccccc1)c1ccccc1	0.24 µM	0.017 µM	–
Cc1[nH]cnc1/C=C/CNC(=O)[C@@H]1CCCN1C(=O)[C@H](N)C(c1ccccc1)c1ccccc1	0.1 µM	0.001 µM	2aPTT [5]: 0.32 µM; Cmax [6]: 550 nM
Cc1nc[nH]c1CNC(=O)Cn1c(C)cnc(NCCc2ccccn2)c1=O	–	0.022 µM	–

Second part, led by results:

Ki [1]	Ki [2]	Compound	other results
2.3 µM	0.2 µM	N[C@@H](C(=O)N1CCC[C@H]1C(=O)NCCc1c[nH]cn1)C(c1ccccc1)c1ccccc1	–
9.6 µM	0.065 µM	Cc1[nH]cnc1CNC(=O)[C@@H]1CCCN1C(=O)[C@H](N)C(c1ccccc1)c1ccccc1	–
6 µM	0.013 µM	N[C@@H](C(=O)N1CCC[C@H]1C(=O)NCC#Cc1c[nH]cn1)C(c1ccccc1)c1ccccc1	–
0.14 µM	0.002 µM	N[C@@H](C(=O)N1CCC[C@H]1C(=O)NC/C=C/c1c[nH]cn1)C(c1ccccc1)c1ccccc1	–
59 µM	0.193 µM	Nc1ncc(CCNC(=O)[C@@H]2CCCN2C(=O)[C@H](N)C(c2ccccc2)c2ccccc2)s1	–
36 µM	0.38 µM	N[C@@H](C(=O)N1CCC[C@H]1C(=O)NCc1c[nH]cn1)C(c1ccccc1)c1ccccc1	–
59 µM	0.35 µM	Nc1ncc(CNC(=O)[C@@H]2CCCN2C(=O)[C@H](N)C(c2ccccc2)c2ccccc2)s1	–
7.2 µM	0.006 µM	Cc1[nH]cnc1C#CCNC(=O)[C@@H]1CCCN1C(=O)[C@H](N)C(c1ccccc1)c1ccccc1	–
32 µM	0.198 µM	Nc1ncc(CCCNC(=O)[C@@H]2CCCN2C(=O)[C@H](N)C(c2ccccc2)c2ccccc2)s1	–

Reference: ChEMBL document CHEMBL1147766, “Structure-based design of novel groups for use in the P1 position of thrombin inhibitor scaffolds. Part 1: Weakly basic azoles” (Bioorg Med Chem Lett, 2006)
